Laboratory results taken from US20210260066A1, “METHOD OF USING MEK INHIBITOR TO PREVENT RADIATION INDUCED FIBROSIS” (THOMAS JEFFERSON UNIVERSITY, priority 2018, published 2021).

Key:
C57BL/6 mice = details: mouse, in vivo
Excerpt: C57BL/6 mice were used to develop a consistent model of intra-abdominal adhesion formation. Mouse cecums were gently abraded to promote adhesion formation which were subsequently analyzed histologically and immunochemically to characterize the expression of pro-fibrotic genes including (αSMA and FNEDA isoform, both of which were examined immunohistochemically and by quantitative polymerase chain reaction (qPCR). Trichrome staining was used to assess collagen deposition, a major protein component found in the extracellular matrix (ECM) at adhesion sites. Consistent intra-abdominal adhesions in mice were achieved by gentle cecal abrasion with mortality rates of <10%. Adhesions were seen as early as post-operative day 1 with extensive adhesions being formed and vascularized by day 5. Expression of the FNEDA isoform first and subsequently αSMA and collagen occurred during adhesion maturation.
Equal numbers of male and female C57BL/6 mice (18-25 g, 8-10 weeks of age, Jackson Laboratories, Bar Harbor, Me.) were used in initial experiments while only male mice were used in the drug escalation studies because they sustained greater accumulations of fibrotic tissue (data not shown). […]

[1] = system: rat peritoneal mesothelial cells; experiment: TGF-β induced mesothelial-mesenchymal transition (MMT) of rat peritoneal mesothelial cells; type: cell-based
Method: Isolated mesothelial cells were incubated under control conditions without either TGF-β or trametinib, with TGF-β or trametinib alone, or with both TGF-β and trametinib for five days.
These increases in gene expression of phosphor-Erk1/2, FNEDA, αSMA and p-SMAD2 (linker) were blocked by as low a concentration of trametinib as 2 nM.
The experiments in this study were approved by the Institutional Animal Care and Use Committee at Thomas Jefferson University, and were performed in accordance with the National Institutes of Health guidelines for the care and handling of laboratory animals. […]
RPMCs were lysed in ice-cold modified RIPA buffer with protease inhibitor cocktail (50 mM/L Tris-HCl, 1% NP-40, 0.25% Na-deoxycholate, 150 mM/L NaCl, 1 mM/L EDTA, 1 mmol/L phenylmethyl sulfonyl fluoride, 1 mM/L sodium orthovanadate, 1 mM/L NaF, pH 7.4). Equivalent amounts of homogenate (50 μg/well), determined by Coomassie blue assay, were separated by sodium dodecyl sulfate polyacrylamide gel electrophoresis (SDS-PAGE), transferred to either nitrocellulose or PVDF membranes, and detected by SuperSignal West Femto or Pico chemiluminescence.

mouse lung fibroblasts = experiment: Pro-fibrotic gene expression (qPCR) in bleomycin-treated mouse lung fibroblasts; type: cell-based; details: bleomycin alone vs vehicle control
Excerpt: Indeed, FIGS. 1A, 1B, and 1C depict the ability of trametinib to modulate the expression of pro-fibrotic genes in mouse lung fibroblasts. The three graphs represent expression of (type I collagen and FNEDA) and αSMA. Lung fibroblasts isolated form mouse lungs were placed in cell culture and treated either with saline (control) or bleomycin dissolved in saline and 3 different concentrations of trametinib (2.5, 5 and 10 nmolar) dissolved in DMSO. After treatment with the drug, RNA was extracted and quantified by qPCR. mRNAs for type I collagen (Collal), the FNEDA and αSMA are shown. Control values in FIGS. 1 A, B, and C were set to 100%.

Row | Compound | Wound healing of abdominal muscles and skin at the laparotomy site (C57BL/6 mice) | Concentration blocking the increases of phosphor-Erk1/2, FNEDA, αSMA and p-SMAD2 (linker) ([1]; TGF-β-treated cells) | Effect of trametinib alone on mesothelial cells (toxicity, appearance) ([1]; trametinib alone, five days) | Increase in expression of Collal mRNA (mouse lung fibroblasts) | Increase in expression of FNEDA mRNA (mouse lung fibroblasts) | Increase in expression of αSMA mRNA (mouse lung fibroblasts)
1 | CC(=O)Nc1cccc(-n2c(=O)n(C3CC3)c(=O)c3c(Nc4ccc(I)cc4F)n(C)c(=O)c(C)c32)c1 [trametinib] | no impairment | ≤ 2 nM | no effect and no apparent toxic effects |  |  | 
2 | bleomycin |  |  |  | more than 200% | ~150% | more than 200%
